Data: PubChem BioAssay (NCI)
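Each compound was tested at five concentrations against cells in 96-well plates for 48 hours. Here, GI50 denotes the concentration required for 50% inhibition of growth. The concentration for full growth arrest is given as TGI.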

Experiments:
Experiment in all cases: NCI-60 cell line screen, 48 h
HCC-2998 colon = test system: HCC-2998 colon
UACC-62 melanoma = test system: UACC-62 melanoma
DU-145 prostate = test system: DU-145 prostate
A498 renal = test system: A498 renal
NCI-H460 lung = test system: NCI-H460 lung
HT29 colon = test system: HT29 colon
SF-539 CNS = test system: SF-539 CNS
SF-268 CNS = test system: SF-268 CNS
NCI-H226 lung = test system: NCI-H226 lung
MOLT-4 leukemia = test system: MOLT-4 leukemia
SW-620 colon = test system: SW-620 colon
NCI-H522 lung = test system: NCI-H522 lung
RXF 393 renal = test system: RXF 393 renal
HOP-92 NSCLC = test system: HOP-92 NSCLC
MALME-3M melanoma = test system: MALME-3M melanoma
T-47D breast = test system: T-47D breast
SK-OV-3 ovarian = test system: SK-OV-3 ovarian
KM12 colon = test system: KM12 colon
NCI-H23 lung = test system: NCI-H23 lung
PC-3 prostate = test system: PC-3 prostate
OVCAR-8 ovarian = test system: OVCAR-8 ovarian
M14 melanoma = test system: M14 melanoma
HOP-62 NSCLC = test system: HOP-62 NSCLC
UO-31 renal = test system: UO-31 renal
K-562 leukemia = test system: K-562 leukemia
SN12C renal = test system: SN12C renal
HCT-15 colon = test system: HCT-15 colon
EKVX NSCLC = test system: EKVX NSCLC
CAKI-1 renal = test system: CAKI-1 renal
MDA-MB-435 = test system: MDA-MB-435
A549 NSCLC = test system: A549 NSCLC
UACC-257 melanoma = test system: UACC-257 melanoma
SF-295 CNS = test system: SF-295 CNS
MDA-MB-231 breast = test system: MDA-MB-231 breast
MCF7 breast = test system: MCF7 breast
SNB-19 CNS = test system: SNB-19 CNS
LOX IMVI melanoma = test system: LOX IMVI melanoma
SNB-75 CNS = test system: SNB-75 CNS
HL-60(TB) leukemia = test system: HL-60(TB) leukemia
CCRF-CEM leukemia = test system: CCRF-CEM leukemia
BT-549 breast = test system: BT-549 breast
ACHN renal = test system: ACHN renal
HCT-116 colon = test system: HCT-116 colon
TK-10 renal = test system: TK-10 renal
HS 578T breast = test system: HS 578T breast
COLO 205 colon = test system: COLO 205 colon
OVCAR-3 ovarian = test system: OVCAR-3 ovarian
OVCAR-4 ovarian = test system: OVCAR-4 ovarian
SK-MEL-28 melanoma = test system: SK-MEL-28 melanoma
U251 CNS = test system: U251 CNS
OVCAR-5 ovarian = test system: OVCAR-5 ovarian
786-0 renal = test system: 786-0 renal
RPMI-8226 leukemia = test system: RPMI-8226 leukemia
IGROV1 ovarian = test system: IGROV1 ovarian
SK-MEL-2 melanoma = test system: SK-MEL-2 melanoma
SK-MEL-5 melanoma = test system: SK-MEL-5 melanoma
NCI/ADR-RES ovarian = test system: NCI/ADR-RES ovarian

Fc1ccc(-c2cc(-c3cn[nH]c3-c3ccccn3)ccn2)cc1
GI50 (HCC-2998 colon): > 25 µM
TGI (HCC-2998 colon): > 25 µM
GI50 (UACC-62 melanoma): > 25 µM
TGI (UACC-62 melanoma): > 25 µM
GI50 (DU-145 prostate): > 25 µM
TGI (DU-145 prostate): > 25 µM
GI50 (A498 renal): 24.8 µM
TGI (A498 renal): > 25 µM
GI50 (NCI-H460 lung): 24.7 µM
TGI (NCI-H460 lung): > 25 µM
GI50 (HT29 colon): > 25 µM
TGI (HT29 colon): > 25 µM
GI50 (SF-539 CNS): > 25 µM
TGI (SF-539 CNS): > 25 µM
GI50 (SF-268 CNS): > 25 µM
TGI (SF-268 CNS): > 25 µM
GI50 (NCI-H226 lung): > 25 µM
TGI (NCI-H226 lung): > 25 µM
GI50 (MOLT-4 leukemia): > 25 µM
TGI (MOLT-4 leukemia): > 25 µM
GI50 (SW-620 colon): > 25 µM
TGI (SW-620 colon): > 25 µM
GI50 (NCI-H522 lung): > 25 µM
TGI (NCI-H522 lung): > 25 µM
GI50 (RXF 393 renal): > 25 µM
TGI (RXF 393 renal): > 25 µM
GI50 (HOP-92 NSCLC): 24.6 µM
TGI (HOP-92 NSCLC): > 25 µM
GI50 (MALME-3M melanoma): > 25 µM
TGI (MALME-3M melanoma): > 25 µM
GI50 (T-47D breast): > 25 µM
TGI (T-47D breast): > 25 µM
GI50 (SK-OV-3 ovarian): > 25 µM
TGI (SK-OV-3 ovarian): > 25 µM
GI50 (KM12 colon): > 25 µM
TGI (KM12 colon): > 25 µM
GI50 (NCI-H23 lung): > 12.8 µM
TGI (NCI-H23 lung): > 25 µM
GI50 (PC-3 prostate): > 25 µM
TGI (PC-3 prostate): > 25 µM
GI50 (OVCAR-8 ovarian): > 25 µM
TGI (OVCAR-8 ovarian): > 25 µM
GI50 (M14 melanoma): > 17 µM
TGI (M14 melanoma): > 25 µM
GI50 (HOP-62 NSCLC): > 25 µM
TGI (HOP-62 NSCLC): > 25 µM
GI50 (UO-31 renal): > 25 µM
TGI (UO-31 renal): > 25 µM
GI50 (K-562 leukemia): > 25 µM
TGI (K-562 leukemia): > 25 µM
GI50 (SN12C renal): > 25 µM
TGI (SN12C renal): > 25 µM
GI50 (HCT-15 colon): > 25 µM
TGI (HCT-15 colon): > 25 µM
GI50 (EKVX NSCLC): > 25 µM
TGI (EKVX NSCLC): > 25 µM
GI50 (CAKI-1 renal): > 25 µM
TGI (CAKI-1 renal): > 25 µM
GI50 (MDA-MB-435): > 25 µM
TGI (MDA-MB-435): > 25 µM
GI50 (A549 NSCLC): > 25 µM
TGI (A549 NSCLC): > 25 µM
GI50 (UACC-257 melanoma): > 25 µM
TGI (UACC-257 melanoma): > 25 µM
GI50 (SF-295 CNS): > 25 µM
TGI (SF-295 CNS): > 25 µM
GI50 (MDA-MB-231 breast): > 25 µM
TGI (MDA-MB-231 breast): > 25 µM
GI50 (MCF7 breast): > 25 µM
TGI (MCF7 breast): > 25 µM
GI50 (SNB-19 CNS): > 25 µM
TGI (SNB-19 CNS): > 25 µM
GI50 (LOX IMVI melanoma): > 25 µM
TGI (LOX IMVI melanoma): > 25 µM
GI50 (SNB-75 CNS): > 25 µM
TGI (SNB-75 CNS): > 25 µM
GI50 (HL-60(TB) leukemia): > 25 µM
TGI (HL-60(TB) leukemia): > 25 µM
GI50 (CCRF-CEM leukemia): > 25 µM
TGI (CCRF-CEM leukemia): > 25 µM
GI50 (BT-549 breast): > 25 µM
TGI (BT-549 breast): > 25 µM
GI50 (ACHN renal): > 25 µM
TGI (ACHN renal): > 25 µM
GI50 (HCT-116 colon): > 17.3 µM
TGI (HCT-116 colon): > 25 µM
GI50 (TK-10 renal): > 25 µM
TGI (TK-10 renal): > 25 µM
GI50 (HS 578T breast): > 25 µM
TGI (HS 578T breast): > 25 µM
GI50 (COLO 205 colon): > 25 µM
TGI (COLO 205 colon): > 25 µM
GI50 (OVCAR-3 ovarian): > 25 µM
TGI (OVCAR-3 ovarian): > 25 µM
GI50 (OVCAR-4 ovarian): > 25 µM
TGI (OVCAR-4 ovarian): > 25 µM
GI50 (SK-MEL-28 melanoma): > 25 µM
TGI (SK-MEL-28 melanoma): > 25 µM
GI50 (U251 CNS): > 25 µM
TGI (U251 CNS): > 25 µM
GI50 (OVCAR-5 ovarian): > 25 µM
TGI (OVCAR-5 ovarian): > 25 µM
GI50 (786-0 renal): > 22.6 µM
TGI (786-0 renal): > 25 µM
GI50 (RPMI-8226 leukemia): > 25 µM
TGI (RPMI-8226 leukemia): > 25 µM
GI50 (IGROV1 ovarian): > 25 µM
TGI (IGROV1 ovarian): > 25 µM
GI50 (SK-MEL-2 melanoma): > 25 µM
TGI (SK-MEL-2 melanoma): > 25 µM
GI50 (SK-MEL-5 melanoma): > 25 µM
TGI (SK-MEL-5 melanoma): > 25 µM
GI50 (NCI/ADR-RES ovarian): > 19.5 µM
TGI (NCI/ADR-RES ovarian): > 25 µM
